{"source": "patent US8604061B2", "about": "“2-aminooxazolines as TAAR1 ligands” (Hoffmann-La Roche Inc., priority 2007, dated 2013)"}
{"biological_target": "TAAR1 (Mus musculus, UniProt Q923Y8)", "assay": "TAAR1 radioligand binding, membranes of stably transfected HEK293 cells (mouse)", "details": "not given", "procedure,_shortened": "(§1)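 Competition binding on membranes from HEK293 cells stably expressing the TAAR1 species ortholog, in HEPES-NaOH pH 7.0 with 10 mM MgCl2 and 2 mM CaCl2, 30 min at 4° C with [3H]-rac-2-(1,2,3,4-tetrahydro-1-naphthyl)-2-imidazoline. Competitors 10 pM–30 μM, duplicates; non-specific binding with 10 μM unlabelled ligand; filtration and scintillation counting.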", "units": {"Ki": "µM"}}
{"compound": "CCc1cc(Cl)ccc1C1COC(N)=N1", "note": "(racemic) [Example 344, (RS)-4-(4-Chloro-2-ethyl-phenyl)-4,5-dihydro-oxazol-2-ylamine]", "Ki": 0.0025}
{"compound": "NC1=NC(c2ccccc2C(F)(F)F)CO1", "note": "(racemic) [Example 6, (RS)-4-(2-Trifluoromethyl-phenyl)-4,5-dihydro-oxazol-2-ylamine]", "Ki": 0.0038}
{"compound": "NC1=NC(c2ccc(Br)cc2)CO1", "note": "(racemic) [Example 20, (RS)-4-(4-Bromo-phenyl)-4,5-dihydro-oxazol-2-ylamine]", "Ki": 0.0009}
{"compound": "NC1=NC(c2cccc(Cl)c2F)CO1", "note": "(racemic) [Example 18, (RS)-4-(3-Chloro-2-fluoro-phenyl)-4,5-dihydro-oxazol-2-ylamine]", "Ki": 0.0022}
{"compound": "NC1=N[C@@H](c2ccc(-c3ccccc3)cc2)CO1", "note": "[Example 21 (S), (S)-4-Biphenyl-4-yl-4,5-dihydro-oxazol-2-ylamine]", "Ki": 0.0008}
{"biological_target": "TAAR1 (Mus musculus, UniProt Q923Y8)", "assay": "TAAR1 radioligand binding, membranes of stably transfected HEK293 cells (mouse)", "details": "mouse/rat; cell not marked 'rat'; radioligand [3H]-rac-2-(1,2,3,4-tetrahydro-1-naphthyl)-2-imidazoline, 4° C.; read-out: Ki (μM) mouse/rat", "procedure,_shortened": "as §1", "units": {"Ki": "µM"}}
{"compound": "NC1=N[C@@H](c2ccc(Cl)cc2C(F)(F)F)CO1", "note": "[Example 238, (+)-(S)-4-(4-Chloro-2-trifluoromethyl-phenyl)-4,5-dihydro-oxazol-2-ylamine]", "Ki": 0.003}
{"compound": "NC1=N[C@@H](CCc2cccc(OC(F)(F)C(F)F)c2)CO1", "note": "[Example 141, (S)-4-{2-[3-(1,1,2,2-Tetrafluoro-ethoxy)-phenyl]-ethyl}-4,5-dihydro-oxazol-2-ylamine]", "Ki": 0.0027}
{"compound": "NC1=N[C@@H](CCc2cc(C(F)(F)F)ccc2F)CO1", "note": "[Example 156, (S)-4-[2-(2-Fluoro-5-trifluoromethyl-phenyl)-ethyl]-4,5-dihydro-oxazol-2-ylamine]", "Ki": 0.0064}
{"compound": "NC1=N[C@@H](Cc2cccc(C(F)(F)F)c2)CO1", "note": "[Example 63, (S)-4-(3-Trifluoromethyl-benzyl)-4,5-dihydro-oxazol-2-ylamine]", "Ki": 0.0086}
{"compound": "C[C@]1(c2ccc(Cl)cc2)COC(N)=N1", "note": "[Example 136, (S)-4-(4-Chloro-phenyl)-4-methyl-4,5-dihydro-oxazol-2-ylamine]", "Ki": 0.0038}
{"compound": "NC1=N[C@@H](CCc2ccc(Cl)c(Cl)c2)CO1", "note": "[Example 127, (S)-4-[2-(3,4-Dichloro-phenyl)-ethyl]-4,5-dihydro-oxazol-2-ylamine]", "Ki": 0.0003}
{"compound": "NC1=N[C@H](CCc2ccccc2)CO1", "note": "[80 (R), (R)-4-phenethyl-4,5-dihydro-oxazol-2-ylamine]", "Ki": 0.0083}
{"compound": "C[C@H](C[C@H]1COC(N)=N1)c1ccccc1", "note": "[82 (S, R), (S)-4-((R)-2-Phenyl-propyl)-4,5-dihydro-oxazol-2-ylamine]", "Ki": 0.0016}
{"compound": "C[C@]1(c2ccc(Cl)c(F)c2)COC(N)=N1", "note": "[Example 236, (S)-4-(4-Chloro-3-fluoro-phenyl)-4-methyl-4,5-dihydro-oxazol-2-ylamine]", "Ki": 0.002}
{"compound": "NC1=N[C@@H](c2cccc(Cl)c2Cl)CO1", "note": "[Example 168, (S)-4-(2,3-Dichloro-phenyl)-4,5-dihydro-oxazol-2-ylamine]", "Ki": 0.0006}
{"compound": "NC1=N[C@@H](CCc2cccc(Cl)c2Cl)CO1", "note": "[Example 149, (S)-4-[2-(2,3-Dichloro-phenyl)-ethyl]-4,5-dihydro-oxazol-2-ylamine]", "Ki": 0.0019}
{"compound": "NC1=N[C@@H](CCc2cccc(F)c2)CO1", "note": "[Example 112, (S)-4-[2-(3-Fluoro-phenyl)-ethyl]-4,5-dihydro-oxazol-2-ylamine]", "Ki": 0.0012}
{"compound": "NC1=N[C@@H](c2ccc(F)cc2C(F)(F)F)CO1", "note": "[Example 248, (+)-(S)-4-(4-Fluoro-2-trifluoromethyl-phenyl)-4,5-dihydro-oxazol-2-ylamine]", "Ki": 0.0029}
{"system": "TAAR1", "assay": "TAAR1 radioligand binding, membranes of stably transfected HEK293 cells (mouse)", "details": "TAAR1 binding assay, species not stated; read-out: calculated Kd value of the radioligand", "procedure,_shortened": "as §1", "units": {"Kd": "nM"}}
{"compound": "c1ccc2c(c1)CCCC2C1=NCCN1", "note": "(racemic) [[^3H]-rac-2-(1,2,3,4-tetrahydro-1-naphthyl)-2-imidazoline, reference compound]", "Kd": 60}
{"biological_target": "TAAR1 (Rattus norvegicus, UniProt Q923Y9)", "assay": "TAAR1 radioligand binding, membranes of stably transfected HEK293 cells (rat)", "details": "cell marked 'rat'; radioligand [3H]-rac-2-(1,2,3,4-tetrahydro-1-naphthyl)-2-imidazoline, 4° C.; read-out: Ki (μM) mouse/rat", "experimental": "For the construction of expression plasmids the coding sequences of human, rat and mouse TAAR 1 were amplified from genomic DNA essentially as described by Lindemann et al.. The Expand High Fidelity PCR System (Roche Diagnostics) was used with 1.5 mM Mg^2+ and purified PCR products were cloned into pCR2.1-TOPO cloning vector (Invitrogen) following the instructions of the manufacturer. PCR products were subcloned into the pIRESneo2 vector (BD Clontech, Palo Alto, Calif.), and expression vectors were sequence verified before introduction in cell lines.\nHEK293 cells (ATCC #CRL-1573) were cultured essentially as described Lindemann et al. (2005). For the generation of stably transfected cell lines HEK293 cells were transfected with the pIRESneo2 expression plasmids containing the TAAR coding sequences (described above) with Lipofectamine 2000 (Invitrogen) according to the instructions of the manufacturer, and 24 hrs post transfection the culture medium was supplemented with 1 mg/ml G418 (Sigma, Buchs, Switzerland). After a culture period of about 10 d clones were isolated, expanded and tested for responsiveness to trace amines (all compounds purchased from Sigma) with the cAMP Biotrak Enzyme immunoassay (EIA) System (Amersham) following the non-acetylation EIA procedure provided by the manufacturer.\nCells at confluence were rinsed with ice-cold phosphate buffered saline without Ca^2+ and Mg^2+ containing 10 mM EDTA and pelleted by centrifugation at 1000 rpm for 5 min at 4° C. The pellet was then washed twice with ice-cold phosphate buffered saline and cell pellet was frozen immediately by immersion in liquid nitrogen and stored until use at −80° C. Cell pellet was then suspended in 20 ml HEPES-NaOH (20 mM), pH 7.4 containing 10 mM EDTA, and homogenized with a Polytron (PT 3000, Kinematica) at 10,000 rpm for 10 s. The homogenate was centrifuged at 48,000×g for 30 min at 4° C. and the pellet resuspended in 20 ml HEPES-NaOH (20 mM), pH 7.4 containing 0.1 mM EDTA (buffer A), and homogenized with a Polytron at 10,000 rpm for 10 s. The homogenate was then centrifuged at 48,000×g for 30 min at 4° C. and the pellet resuspended in 20 ml buffer A, and homogenized with a Polytron at 10,000 rpm for 10 s. Protein concentration was determined by the method of Pierce (Rockford, Ill.). The homogenate was then centrifuged at 48,000×g for 10 min at 4° C., resuspended in HEPES-NaOH (20 mM), pH 7.0 including MgCl2 (10 mM) and […] homogenized with a Polytron at 10,000 rpm for 10 s.\nBinding assay was performed at 4° C. in a final volume of 1 ml, and with an incubation time of 30 min. […] Non-specific binding was defined as the amount of [^3H]-rac-2-(1,2,3,4-tetrahydro-1-naphthyl)-2-imidazoline bound in the presence of the appropriate unlabelled ligand (10 μM). Competing ligands were tested in a wide range of concentrations (10 pM-30 μM). […] Each experiment was performed in duplicate. All incubations were terminated by rapid filtration through UniFilter-96 plates (Packard Instrument Company) and glass filter GF/C, pre-soaked for at least 2 h in polyethylenimine 0.3%, and using a Filtermate 96 Cell Harvester (Packard Instrument Company). The tubes and filters were then washed 3 times with 1 ml aliquots of cold buffer B. Filters were not dried and soaked in Ultima gold (45 μl/well, Packard Instrument Company) and bound radioactivity was counted by a TopCount Microplate Scintillation Counter (Packard Instrument Company).", "units": {"Ki": "µM"}}
{"compound": "CC1(c2ccc(F)cc2Cl)COC(N)=N1", "note": "(racemic) [Example 318, (RS)-4-(2-Chloro-4-fluoro-phenyl)-4-methyl-4,5-dihydro-oxazol-2-ylamine]", "Ki": 0.002}
{"compound": "NC1=N[C@@H](c2ccc(Br)c(F)c2)CO1", "note": "[Example 321, (+)-(S)-4-(4-Bromo-3-fluoro-phenyl)-4,5-dihydro-oxazol-2-ylamine]", "Ki": 0.0014}
{"compound": "NC1=N[C@@H](CCc2ccccc2Br)CO1", "note": "[Example 322, (S)-4-[2-(2-Bromo-phenyl)-ethyl]-4,5-dihydro-oxazol-2-ylamine]", "Ki": 0.002}
{"compound": "NC1=N[C@@H](COc2cc(Cl)cc(Cl)c2)CO1", "note": "[Example 285, (S)-4-(3,5-Dichloro-phenoxymethyl)-4,5-dihydro-oxazol-2-ylamine]", "Ki": 0.0045}
{"compound": "CC1(c2cccc(Cl)c2F)COC(N)=N1", "note": "(racemic) [Example 311, (RS)-4-(3-Chloro-2-fluoro-phenyl)-4-methyl-4,5-dihydro-oxazol-2-ylamine]", "Ki": 0.0042}
{"compound": "NC1=N[C@@H](c2ccc(Br)cc2Cl)CO1", "note": "[Example 316, (+)-(S)-4-(4-Bromo-2-chloro-phenyl)-4,5-dihydro-oxazol-2-ylamine]", "Ki": 0.0003}
{"compound": "NC1=N[C@@H](COc2ccc(Cl)c(Cl)c2)CO1", "note": "[Example 284, (S)-4-(3,4-Dichloro-phenoxymethyl)-4,5-dihydro-oxazol-2-ylamine]", "Ki": 0.0028}
{"compound": "CCC(C[C@H]1COC(N)=N1)c1cccc(Cl)c1", "note": "(stereo partly drawn) [Example 287, (S)-4-[2-(3-Chloro-phenyl)-butyl]-4,5-dihydro-oxazol-2-ylamine]", "Ki": 0.0027}
{"compound": "NC1=N[C@H](c2ccc(Br)cc2Cl)CO1", "note": "[Example 315, (−)-(R)-4-(4-Bromo-2-chloro-phenyl)-4,5-dihydro-oxazol-2-ylamine]", "Ki": 0.0016}
{"compound": "CC[C@]1(c2ccc(Cl)cc2)COC(N)=N1", "note": "[Example 313, (S)-4-(4-Chloro-phenyl)-4-ethyl-4,5-dihydro-oxazol-2-ylamine]", "Ki": 0.005}
{"compound": "Cc1ccc(Cl)cc1[C@H]1COC(N)=N1", "note": "[Example 314, (+)-(S)-4-(5-Chloro-2-methyl-phenyl)-4,5-dihydro-oxazol-2-ylamine]", "Ki": 0.003}
{"compound": "Cc1cc([C@@]2(C)COC(N)=N2)ccc1Cl", "note": "[Example 281, (S)-4-(4-Chloro-3-methyl-phenyl)-4-methyl-4,5-dihydro-oxazol-2-ylamine]", "Ki": 0.0019}
{"compound": "NC1=N[C@@H](COc2ccc(Br)cc2)CO1", "note": "[Example 310, (S)-4-(4-Bromo-phenoxymethyl)-4,5-dihydro-oxazol-2-ylamine]", "Ki": 0.009}
